Tests used:
prostate line LNCap = experiment: In vitro cell culture growth assay (MTS), LNCap; type: cell-based; details: Homo sapiens, LNCaP, 72 h, LNCap cells, three days after drug treatment
Method: Human tumor cell lines used include prostate lines LNCap and PC3MM2, breast lines MDA468, MCF7, renal line HTB44 (A498), colon line HCT116, and ovarian line OVCAR3. Cells were plated in 96-well culture plates. One day following plating, the inhibitors were added to cells. Three days after drug treatment, viable cell densities were determined by metabolic conversion (by viable cells) of the dye MTS, a well-established cell proliferation assay. The assays were performed using an assay kit purchased from Promega Corp. (Madison, Wis.) following the protocol supplied with the kit. The MTS assay results were read in a 96-well plate reader by measuring absorbance at 490 nm. The effect of each treatment was calculated as percent of control growth relative to the vehicle-treated cells grown in the same culture plate.

Human mTOR (FLAG-TOR) = biological target: T1, Human mTOR (FLAG-TOR) (Homo sapiens, UniProt P42345); experiment: Human mTOR kinase assay with purified enzyme, DELFIA format; type: biochemical
T1 construct: FLAG
Procedure, shortened: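 Purified FLAG-mTOR in HEPES pH 7.4 buffer with 10 mM MnCl2 was preincubated with inhibitor and reacted 2 h at room temperature with His6-S6K substrate, then stopped with EDTA/EGTA. Phospho-T389 S6K detected by DELFIA with Eu-labelled antibody (40 ng/mL) after plate capture; inhibition computed from signal.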

breast line MDA468 = experiment: In vitro cell culture growth assay (MTS), MDA468; type: cell-based; details: Homo sapiens, 72 h, MDA468 cells, three days after drug treatment
Procedure, shortened: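 Growth is reported as percent of vehicle-treated control grown in the same plate, with viability determined by metabolic conversion of MTS dye and absorbance read at 490 nm. Compounds were applied one day after plating and left for three days.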

PI3K [1] = biological target: T2, PI3K (Homo sapiens, UniProt P48736); experiment: Fluorescence polarization assay for PI3K; type: biochemical; details: PI3 Kinase γ; read-out: PI3 Kinase γ IC50
T2 construct: PI3 Kinase γ IC50; other: PI3 Kinase γ; other: PI3 Kinase γ isoform, fluorescence polarization
T2 sequence (P48736 whole entry, canonical isoform): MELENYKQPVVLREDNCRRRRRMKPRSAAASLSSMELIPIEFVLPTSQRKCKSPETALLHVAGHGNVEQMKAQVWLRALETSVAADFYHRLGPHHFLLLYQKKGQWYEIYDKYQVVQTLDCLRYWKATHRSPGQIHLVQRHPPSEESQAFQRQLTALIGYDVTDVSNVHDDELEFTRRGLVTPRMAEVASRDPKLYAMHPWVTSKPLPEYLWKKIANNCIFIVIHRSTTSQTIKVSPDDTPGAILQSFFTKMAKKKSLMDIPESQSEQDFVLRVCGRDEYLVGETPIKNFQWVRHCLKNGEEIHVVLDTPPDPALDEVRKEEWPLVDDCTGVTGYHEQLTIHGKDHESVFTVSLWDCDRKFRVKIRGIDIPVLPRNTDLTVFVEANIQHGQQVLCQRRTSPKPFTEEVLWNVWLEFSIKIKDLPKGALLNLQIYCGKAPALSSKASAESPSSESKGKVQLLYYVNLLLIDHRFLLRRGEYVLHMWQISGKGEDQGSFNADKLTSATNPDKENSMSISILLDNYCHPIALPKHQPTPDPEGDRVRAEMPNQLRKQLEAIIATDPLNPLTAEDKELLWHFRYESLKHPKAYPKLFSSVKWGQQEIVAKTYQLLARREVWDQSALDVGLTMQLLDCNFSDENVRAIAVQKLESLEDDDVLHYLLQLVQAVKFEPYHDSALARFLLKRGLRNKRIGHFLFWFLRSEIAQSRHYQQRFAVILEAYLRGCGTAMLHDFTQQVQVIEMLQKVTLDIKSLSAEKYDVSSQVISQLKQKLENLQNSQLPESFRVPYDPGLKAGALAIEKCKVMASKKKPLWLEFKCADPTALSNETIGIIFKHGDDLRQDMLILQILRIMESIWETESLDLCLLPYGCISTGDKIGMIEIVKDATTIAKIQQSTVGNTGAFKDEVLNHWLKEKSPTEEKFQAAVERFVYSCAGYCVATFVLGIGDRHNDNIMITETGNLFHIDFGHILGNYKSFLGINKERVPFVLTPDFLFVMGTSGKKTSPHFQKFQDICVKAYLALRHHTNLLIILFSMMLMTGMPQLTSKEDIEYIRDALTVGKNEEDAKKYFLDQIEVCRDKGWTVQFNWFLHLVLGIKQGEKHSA
Procedure, shortened: (§1)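 PI3K was preincubated with compound (final DMSO 1%), and the reaction was started with PIP2/ATP substrate and run 30–60 min. It was stopped with a detector mix giving 10 nM red probe and 70 nM GST-GRP.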

PI3K [2] = biological target: T3, PI3K (Homo sapiens, UniProt P42336); experiment: Fluorescence polarization assay for PI3K; type: biochemical; details: PI3 Kinase α; read-out: PI3 Kinase α IC50
T3 construct: PI3 Kinase α IC50; other: PI3 Kinase α; other: PI3 Kinase α isoform, fluorescence polarization
T3 sequence (P42336 whole entry, canonical isoform): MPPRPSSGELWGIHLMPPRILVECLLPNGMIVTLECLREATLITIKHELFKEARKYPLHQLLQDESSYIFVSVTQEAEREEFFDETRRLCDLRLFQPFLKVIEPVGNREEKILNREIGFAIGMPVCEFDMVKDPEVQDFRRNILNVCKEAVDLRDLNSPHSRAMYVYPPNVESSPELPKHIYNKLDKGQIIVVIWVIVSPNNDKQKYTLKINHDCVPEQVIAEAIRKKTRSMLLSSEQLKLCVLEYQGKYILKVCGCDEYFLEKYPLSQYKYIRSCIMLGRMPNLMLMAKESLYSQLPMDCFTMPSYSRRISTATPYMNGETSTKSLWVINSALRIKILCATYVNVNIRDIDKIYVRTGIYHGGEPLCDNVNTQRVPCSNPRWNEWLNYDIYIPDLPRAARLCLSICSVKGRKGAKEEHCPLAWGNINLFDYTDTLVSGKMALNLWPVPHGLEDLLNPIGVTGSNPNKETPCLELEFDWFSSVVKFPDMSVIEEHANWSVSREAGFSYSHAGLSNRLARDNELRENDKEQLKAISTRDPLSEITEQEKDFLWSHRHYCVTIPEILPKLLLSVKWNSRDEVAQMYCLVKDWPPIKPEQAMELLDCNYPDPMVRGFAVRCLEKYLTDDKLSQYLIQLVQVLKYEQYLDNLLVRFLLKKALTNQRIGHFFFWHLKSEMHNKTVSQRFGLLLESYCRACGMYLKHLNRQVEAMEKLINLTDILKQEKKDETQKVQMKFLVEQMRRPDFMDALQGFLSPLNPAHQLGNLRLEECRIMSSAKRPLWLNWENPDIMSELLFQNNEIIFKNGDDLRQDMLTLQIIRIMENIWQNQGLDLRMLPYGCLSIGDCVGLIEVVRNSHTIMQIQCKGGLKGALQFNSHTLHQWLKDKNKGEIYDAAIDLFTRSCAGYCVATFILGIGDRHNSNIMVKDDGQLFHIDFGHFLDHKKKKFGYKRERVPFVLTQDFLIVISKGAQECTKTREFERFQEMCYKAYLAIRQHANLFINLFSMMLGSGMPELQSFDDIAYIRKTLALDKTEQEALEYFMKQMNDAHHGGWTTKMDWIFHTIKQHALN
Procedure, shortened: as §1

Row | Structure (SMILES) | IC50 (prostate line LNCap) [nM] | IC50 (Human mTOR (FLAG-TOR)) [nM] | IC50 (breast line MDA468) [nM] | IC50 (PI3K [1]) [nM] | IC50 (PI3K [2]) [nM]
1 | O=C(NCCF)Nc1ccc(-c2nc(N3CC4CCC(C3)O4)c3cnn(CC(F)(F)F)c3n2)cc1 [Example 6, 1-(2-fluoroethyl)-3-{4-[4-(8-oxa-3-azabicyclo[3.2.1]oct-3-yl)-1-(2,2,2-trifluoroethyl)-1H-pyrazolo[3,4-d]pyrimidin-6-yl]phenyl}urea] | < 27 | 0.22 | < 27 | 6570 | 2750
2 | CNC(=O)Nc1ccc(-c2nc(N3CC4CCC(C3)O4)c3cnn(C4CCN(C(=O)OC)CC4)c3n2)cc1 [Example 7, methyl 4-[6-{4-[(methylcarbamoyl)amino]phenyl}-4-(8-oxa-3-azabicyclo[3.2.1]oct-3-yl)-1H-pyrazolo[3,4-d]pyrimidin-1-yl]piperidine-1-carboxylate] | 26 | 0.21 | 80 | > 10000 | 1800
3 | CNC(=O)Nc1ccc(-c2nc(N3CC4CCC(C3)O4)c3cnn(C4CCN(C(=O)OC(C)(C)C)CC4)c3n2)cc1 [Example 8, tert-butyl 4-[6-{4-[(methylcarbamoyl)amino]phenyl}-4-(8-oxa-3-azabicyclo[3.2.1]oct-3-yl)-1H-pyrazolo[3,4-d]pyrimidin-1-yl]piperidine-1-carboxylate] | < 27 | 0.28 | 180 | > 10000 | 1480
4 | CCNC(=O)Nc1ccc(-c2nc(N3CC4CCC(C3)O4)c3cnn(C4CCN(C(=O)OC)CC4)c3n2)cc1 [Example 9, methyl 4-[6-{4-[(ethylcarbamoyl)amino]phenyl}-4-(8-oxa-3-azabicyclo[3.2.1]oct-3-yl)-1H-pyrazolo[3,4-d]pyrimidin-1-yl]piperidine-1-carboxylate] | 9 | 0.22 | 180 | > 10000 | 5330
5 | COC(=O)N1CCC(n2ncc3c(N4CC5CCC(C4)O5)nc(-c4ccc(NC(=O)NCCF)cc4)nc32)CC1 [Example 10, methyl 4-[6-(4-{[(2-fluoroethyl)carbamoyl]amino}phenyl)-4-(8-oxa-3-azabicyclo[3.2.1]oct-3-yl)-1H-pyrazolo[3,4-d]pyrimidin-1-yl]piperidine-1-carboxylate] | 12 | 0.34 | 220 | 6590 | 4930
6 | COC(=O)N1CCC(n2ncc3c(N4CC5CCC(C4)O5)nc(-c4ccc(NC(=O)Nc5ccccc5)cc4)nc32)CC1 [Example 11, methyl 4-[4-(8-oxa-3-azabicyclo[3.2.1]oct-3-yl)-6-{4-[(phenylcarbamoyl)amino]phenyl}-1H-pyrazolo[3,4-d]pyrimidin-1-yl]piperidine-1-carboxylate] | 10 | 0.37 | 120 | 6820 | 272
7 | COC(=O)N1CCC(n2ncc3c(N4CC5CCC(C4)O5)nc(-c4ccc(NC(=O)Nc5cccnc5)cc4)nc32)CC1 [Example 13, methyl 4-[4-(8-oxa-3-azabicyclo[3.2.1]oct-3-yl)-6-{4-[(pyridin-3-ylcarbamoyl)amino]phenyl}-1H-pyrazolo[3,4-d]pyrimidin-1-yl]piperidine-1-carboxylate] | 15 | 0.1 | 75 | 6840 | 613
8 | COC(=O)N1CCC(n2ncc3c(N4CC5CCC(C4)O5)nc(-c4ccc(NC(=O)Nc5ccncc5)cc4)nc32)CC1 [Example 14, methyl 4-[4-(8-oxa-3-azabicyclo[3.2.1]oct-3-yl)-6-{4-[(pyridin-4-ylcarbamoyl)amino]phenyl}-1H-pyrazolo[3,4-d]pyrimidin-1-yl]piperidine-1-carboxylate] | 0.9 | 0.16 | 19 | 2050 | 487
9 | CCNC(=O)Nc1ccc(-c2nc(N3CC4CCC(C3)O4)c3cnn(C4CCN(Cc5cccnc5)CC4)c3n2)cc1 [Example 15, 1-ethyl-3-(4-{4-(8-oxa-3-azabicyclo[3.2.1]oct-3-yl)-1-[1-(pyridin-3-ylmethyl)piperidin-4-yl]-1H-pyrazolo[3,4-d]pyrimidin-6-yl}phenyl)urea] | 4 | 0.31 | 85 | > 10000 | 2280
10 | O=C(NCCF)Nc1ccc(-c2nc(N3CC4CCC(C3)O4)c3cnn(C4CCN(Cc5cccnc5)CC4)c3n2)cc1 [Example 16, 1-(2-fluoroethyl)-3-(4-{4-(8-oxa-3-azabicyclo[3.2.1]oct-3-yl)-1-[1-(pyridin-3-ylmethyl)piperidin-4-yl]-1H-pyrazolo[3,4-d]pyrimidin-6-yl}phenyl)urea] | 6 | 0.5 | 80 | > 10000 | 2630
11 | O=C(Nc1ccccc1)Nc1ccc(-c2nc(N3CC4CCC(C3)O4)c3cnn(C4CCN(Cc5cccnc5)CC4)c3n2)cc1 [Example 17, 1-(4-{4-(8-oxa-3-azabicyclo[3.2.1]oct-3-yl)-1-[1-(pyridin-3-ylmethyl)piperidin-4-yl]-1H-pyrazolo[3,4-d]pyrimidin-6-yl}phenyl)-3-phenylurea] | 0.8 | 0.61 | 10 | 1860 | 222
12 | O=C(Nc1ccc(-c2nc(N3CC4CCC(C3)O4)c3cnn(C4CCN(Cc5cccnc5)CC4)c3n2)cc1)Nc1cccnc1 [Example 18, 1-(4-{4-(8-oxa-3-azabicyclo[3.2.1]oct-3-yl)-1-[1-(pyridin-3-ylmethyl)piperidin-4-yl]-1H-pyrazolo[3,4-d]pyrimidin-6-yl}phenyl)-3-pyridin-3-ylurea] | < 0.8 | 0.25 | < 0.8 | 3480 | 326
13 | O=C(Nc1ccncc1)Nc1ccc(-c2nc(N3CC4CCC(C3)O4)c3cnn(C4CCN(Cc5cccnc5)CC4)c3n2)cc1 [Example 19, 1-(4-{4-(8-oxa-3-azabicyclo[3.2.1]oct-3-yl)-1-[1-(pyridin-3-ylmethyl)piperidin-4-yl]-1H-pyrazolo[3,4-d]pyrimidin-6-yl}phenyl)-3-pyridin-4-ylurea] | < 0.8 | 0.14 | < 0.8 | 391 | 223
14 | CCNC(=O)Nc1ccc(-c2nc(N3CC4CCC(C3)O4)c3cnn(C4CCN(C(=O)OC(C)(C)C)CC4)c3n2)cc1 [Example 20, tert-butyl4-[6-{4-[(ethylcarbamoyl)amino]phenyl}-4-(8-oxa-3-azabicyclo[3.2.1]oct-3-yl)-1H-pyrazolo[3,4-d]pyrimidin-1-yl]piperidine-1-carboxylate] | 27 | 0.47 | 98 | > 10000 | 2350
15 | CC(C)(C)OC(=O)N1CCC(n2ncc3c(N4CC5CCC(C4)O5)nc(-c4ccc(NC(=O)NCCF)cc4)nc32)CC1 [Example 21, tert-butyl 4-[6-(4-{[(2-fluoroethyl)carbamoyl]amino}phenyl)-4-(8-oxa-3-azabicyclo[3.2.1]oct-3-yl)-1H-pyrazolo[3,4-d]pyrimidin-1-yl]piperidine-1-carboxylate] | 12 | 0.24 | 120 | 11000 | 3960
16 | CC(C)(C)OC(=O)N1CCC(n2ncc3c(N4CC5CCC(C4)O5)nc(-c4ccc(NC(=O)NC5CC5)cc4)nc32)CC1 [Example 22, tert-butyl 4-[6-{4-[(cyclopropylcarbamoyl)amino]phenyl}-4-(8-oxa-3-azabicyclo[3.2.1]oct-3-yl)-1H-pyrazolo[3,4-d]pyrimidin-1-yl]piperidine-1-carboxylate] | 27 | 0.56 | 150 | > 10000 | 3850
17 | CC(C)(C)OC(=O)N1CCC(n2ncc3c(N4CC5CCC(C4)O5)nc(-c4ccc(NC(=O)Nc5ccccc5)cc4)nc32)CC1 [Example 23, tert-butyl 4-[4-(8-oxa-3-azabicyclo[3.2.1]oct-3-yl)-6-{4-[(phenylcarbamoyl)amino]phenyl}-1H-pyrazolo[3,4-d]pyrimidin-1-yl]piperidine-1-carboxylate] | 40 | 0.7 | 180 | > 10000 | 888
18 | CC(C)(C)OC(=O)N1CCC(n2ncc3c(N4CC5CCC(C4)O5)nc(-c4ccc(NC(=O)Nc5cccnc5)cc4)nc32)CC1 [Example 24, tert-butyl 4-[4-(8-oxa-3-azabicyclo[3.2.1]oct-3-yl)-6-{4-[(pyridin-3-ylcarbamoyl)amino]phenyl}-1H-pyrazolo[3,4-d]pyrimidin-1-yl]piperidine-1-carboxylate] | 7 | 0.39 | 18 | 6300 | 629

Reference: patent US8129371B2, “Thienopyrimidine and pyrazolopyrimidine compounds and their use as mTOR kinase and PI3 kinase inhibitors” (Wyeth LLC, priority 2007, dated 2012)
